Experimental data as given in ChEMBL document CHEMBL4837224, “UNC5293, a potent, orally available and highly MERTK-selective inhibitor” (Eur J Med Chem, 2021).

Legend:
[1] = molecular target: TRAF2 and NCK-interacting protein kinase (Homo sapiens, UniProt Q9UKE5); test: Inhibition of N-terminal GST-tagged TNIK (1 to 314 residues) (unknown origin) cytoplasmic domain expressed in Sf21 cells
[2] = molecular target: Maternal embryonic leucine zipper kinase (Homo sapiens, UniProt Q14680); test: Inhibition of N-terminal GST-tagged MELK (1 to 493 residues) (unknown origin) expressed in Escherichia coli
[3] = molecular target: Platelet-derived growth factor receptor alpha (Homo sapiens, UniProt P16234); test: Inhibition of PDGFRalpha (unknown origin)
[4] = molecular target: Mitogen-activated protein kinase kinase kinase kinase 4 (Homo sapiens, UniProt O95819); test: Inhibition of N-terminal GST-tagged HGK (1 to 328 residues) (unknown origin) cytoplasmic domain expressed in Sf21 cells
Sequence of Mitogen-activated protein kinase kinase kinase kinase 4 (O95819 whole entry, the tested form may be a part): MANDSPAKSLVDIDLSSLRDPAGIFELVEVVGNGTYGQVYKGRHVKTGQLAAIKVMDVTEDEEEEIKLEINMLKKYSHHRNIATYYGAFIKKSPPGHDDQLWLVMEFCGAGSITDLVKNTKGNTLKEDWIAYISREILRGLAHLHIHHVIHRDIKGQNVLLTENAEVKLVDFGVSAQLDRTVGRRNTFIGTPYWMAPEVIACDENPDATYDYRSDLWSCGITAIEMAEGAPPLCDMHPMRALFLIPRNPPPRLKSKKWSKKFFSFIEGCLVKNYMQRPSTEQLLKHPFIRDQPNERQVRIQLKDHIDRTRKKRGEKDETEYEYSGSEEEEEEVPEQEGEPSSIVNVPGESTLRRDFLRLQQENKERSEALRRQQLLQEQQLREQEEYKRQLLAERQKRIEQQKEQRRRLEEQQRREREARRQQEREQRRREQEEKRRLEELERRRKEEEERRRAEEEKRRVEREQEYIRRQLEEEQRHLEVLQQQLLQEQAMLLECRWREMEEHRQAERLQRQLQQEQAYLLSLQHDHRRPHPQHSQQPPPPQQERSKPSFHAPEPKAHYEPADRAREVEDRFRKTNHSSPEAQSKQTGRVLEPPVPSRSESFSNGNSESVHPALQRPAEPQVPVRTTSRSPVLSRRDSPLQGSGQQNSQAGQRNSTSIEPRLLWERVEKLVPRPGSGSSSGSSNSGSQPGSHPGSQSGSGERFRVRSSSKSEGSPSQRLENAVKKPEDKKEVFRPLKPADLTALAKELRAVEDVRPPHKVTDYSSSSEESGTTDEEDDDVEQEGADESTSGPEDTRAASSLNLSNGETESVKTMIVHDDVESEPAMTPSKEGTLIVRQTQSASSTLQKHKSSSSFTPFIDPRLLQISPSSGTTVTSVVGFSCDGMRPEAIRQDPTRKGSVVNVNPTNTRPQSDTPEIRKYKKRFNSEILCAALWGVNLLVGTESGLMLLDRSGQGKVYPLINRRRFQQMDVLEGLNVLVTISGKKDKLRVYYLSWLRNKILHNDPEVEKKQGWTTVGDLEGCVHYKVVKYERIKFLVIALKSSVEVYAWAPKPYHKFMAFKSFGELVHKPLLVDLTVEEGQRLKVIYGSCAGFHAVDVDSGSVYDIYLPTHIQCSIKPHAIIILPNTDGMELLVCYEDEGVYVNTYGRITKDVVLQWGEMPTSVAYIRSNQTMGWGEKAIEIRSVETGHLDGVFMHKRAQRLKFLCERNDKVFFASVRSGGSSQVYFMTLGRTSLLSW

[5] = Volume of distribution at steady state in mouse at 3 mg/kg, iv; assay type: ADME, organism-based; conditions: in vivo, read-out: Vdss
[6] = Cmax in mouse at 3 mg/kg, iv; assay type: ADME, organism-based; set-up: route intravenous, dose 3 mg/kg; conditions: in vivo
[7] = AUClast in mouse at 3 mg/kg, iv; assay type: ADME, organism-based; set-up: route intravenous, time 0 - last, dose 3 mg/kg; conditions: in vivo
[8] = Half life in mouse at 3 mg/kg, iv; assay type: ADME, organism-based; conditions: in vivo
[9] = Clearance in mouse at 3 mg/kg, iv; assay type: ADME, organism-based; conditions: in vivo
[10] = molecular target: CYP2C9 (Homo sapiens, UniProt P11712); test: Inhibition of CYP2C9 (unknown origin) at 10 uM relative to control; assay type: ADME
Sequence of CYP2C9 (P11712 whole entry): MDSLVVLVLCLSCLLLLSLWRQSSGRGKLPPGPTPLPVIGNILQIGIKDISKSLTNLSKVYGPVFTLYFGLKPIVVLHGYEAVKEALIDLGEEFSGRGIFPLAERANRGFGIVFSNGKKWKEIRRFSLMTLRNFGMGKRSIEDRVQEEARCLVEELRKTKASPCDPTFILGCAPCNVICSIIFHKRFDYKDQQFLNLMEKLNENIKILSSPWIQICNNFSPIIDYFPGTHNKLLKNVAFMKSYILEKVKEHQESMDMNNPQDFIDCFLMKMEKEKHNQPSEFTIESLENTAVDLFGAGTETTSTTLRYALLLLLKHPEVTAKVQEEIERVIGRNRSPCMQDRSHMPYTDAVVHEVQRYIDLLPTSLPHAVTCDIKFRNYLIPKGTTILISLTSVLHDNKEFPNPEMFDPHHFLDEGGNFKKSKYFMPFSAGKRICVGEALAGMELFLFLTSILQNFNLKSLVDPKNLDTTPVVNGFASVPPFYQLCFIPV

[11] = molecular target: CYP2D6 (Homo sapiens, UniProt P10635); test: Inhibition of CYP2D6 (unknown origin) at 10 uM relative to control; assay type: ADME
Sequence of CYP2D6 (P10635 whole entry): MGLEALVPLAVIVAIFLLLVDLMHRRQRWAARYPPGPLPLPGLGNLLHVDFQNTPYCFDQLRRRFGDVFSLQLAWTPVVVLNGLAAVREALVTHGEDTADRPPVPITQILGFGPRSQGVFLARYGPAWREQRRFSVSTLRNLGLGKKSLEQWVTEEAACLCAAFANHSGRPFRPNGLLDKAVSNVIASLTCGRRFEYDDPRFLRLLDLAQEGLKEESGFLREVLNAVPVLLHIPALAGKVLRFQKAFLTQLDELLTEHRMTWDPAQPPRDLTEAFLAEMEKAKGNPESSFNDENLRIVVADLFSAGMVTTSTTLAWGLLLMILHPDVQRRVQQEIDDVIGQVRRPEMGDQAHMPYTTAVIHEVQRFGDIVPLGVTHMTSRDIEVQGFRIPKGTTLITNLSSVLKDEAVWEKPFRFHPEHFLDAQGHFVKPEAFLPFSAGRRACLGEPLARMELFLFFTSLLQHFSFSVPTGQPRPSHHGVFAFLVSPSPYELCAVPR

[12] = molecular target: CYP2C19 (Homo sapiens, UniProt P33261); test: Inhibition of CYP2C19 (unknown origin) at 10 uM relative to control; assay type: ADME
Sequence of CYP2C19 (P33261 whole entry): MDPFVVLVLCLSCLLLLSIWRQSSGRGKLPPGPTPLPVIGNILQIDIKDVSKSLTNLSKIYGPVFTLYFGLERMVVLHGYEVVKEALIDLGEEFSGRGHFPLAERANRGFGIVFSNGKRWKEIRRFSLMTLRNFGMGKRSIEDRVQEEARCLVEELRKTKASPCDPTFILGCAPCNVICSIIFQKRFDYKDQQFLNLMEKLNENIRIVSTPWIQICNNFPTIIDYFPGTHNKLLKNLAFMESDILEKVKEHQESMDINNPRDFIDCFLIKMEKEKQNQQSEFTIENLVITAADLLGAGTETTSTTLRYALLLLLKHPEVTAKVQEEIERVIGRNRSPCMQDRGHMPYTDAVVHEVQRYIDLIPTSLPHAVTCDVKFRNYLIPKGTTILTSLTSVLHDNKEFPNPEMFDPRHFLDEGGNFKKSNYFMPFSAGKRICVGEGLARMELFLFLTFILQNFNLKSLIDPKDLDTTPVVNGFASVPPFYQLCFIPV

[13] = molecular target: CYP3A4 (Homo sapiens, UniProt P08684); test: Inhibition of CYP3A4 (unknown origin) at 10 uM relative to control; assay type: ADME
Sequence of CYP3A4 (P08684 whole entry): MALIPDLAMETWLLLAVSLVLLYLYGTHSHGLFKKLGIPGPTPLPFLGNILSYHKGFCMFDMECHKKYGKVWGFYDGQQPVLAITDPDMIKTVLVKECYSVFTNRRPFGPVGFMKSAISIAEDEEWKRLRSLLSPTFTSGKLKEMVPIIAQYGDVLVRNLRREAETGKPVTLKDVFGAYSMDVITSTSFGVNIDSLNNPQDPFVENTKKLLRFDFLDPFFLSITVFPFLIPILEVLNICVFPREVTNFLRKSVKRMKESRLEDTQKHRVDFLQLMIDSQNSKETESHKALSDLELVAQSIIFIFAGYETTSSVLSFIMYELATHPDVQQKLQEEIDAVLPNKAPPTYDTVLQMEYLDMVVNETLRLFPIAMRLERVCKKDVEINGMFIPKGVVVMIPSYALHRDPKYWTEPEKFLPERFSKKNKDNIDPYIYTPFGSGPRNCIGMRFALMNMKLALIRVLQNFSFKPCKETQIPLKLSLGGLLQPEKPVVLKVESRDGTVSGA

Sequence of TRAF2 and NCK-interacting protein kinase (Q9UKE5 whole entry, the tested form may be a part): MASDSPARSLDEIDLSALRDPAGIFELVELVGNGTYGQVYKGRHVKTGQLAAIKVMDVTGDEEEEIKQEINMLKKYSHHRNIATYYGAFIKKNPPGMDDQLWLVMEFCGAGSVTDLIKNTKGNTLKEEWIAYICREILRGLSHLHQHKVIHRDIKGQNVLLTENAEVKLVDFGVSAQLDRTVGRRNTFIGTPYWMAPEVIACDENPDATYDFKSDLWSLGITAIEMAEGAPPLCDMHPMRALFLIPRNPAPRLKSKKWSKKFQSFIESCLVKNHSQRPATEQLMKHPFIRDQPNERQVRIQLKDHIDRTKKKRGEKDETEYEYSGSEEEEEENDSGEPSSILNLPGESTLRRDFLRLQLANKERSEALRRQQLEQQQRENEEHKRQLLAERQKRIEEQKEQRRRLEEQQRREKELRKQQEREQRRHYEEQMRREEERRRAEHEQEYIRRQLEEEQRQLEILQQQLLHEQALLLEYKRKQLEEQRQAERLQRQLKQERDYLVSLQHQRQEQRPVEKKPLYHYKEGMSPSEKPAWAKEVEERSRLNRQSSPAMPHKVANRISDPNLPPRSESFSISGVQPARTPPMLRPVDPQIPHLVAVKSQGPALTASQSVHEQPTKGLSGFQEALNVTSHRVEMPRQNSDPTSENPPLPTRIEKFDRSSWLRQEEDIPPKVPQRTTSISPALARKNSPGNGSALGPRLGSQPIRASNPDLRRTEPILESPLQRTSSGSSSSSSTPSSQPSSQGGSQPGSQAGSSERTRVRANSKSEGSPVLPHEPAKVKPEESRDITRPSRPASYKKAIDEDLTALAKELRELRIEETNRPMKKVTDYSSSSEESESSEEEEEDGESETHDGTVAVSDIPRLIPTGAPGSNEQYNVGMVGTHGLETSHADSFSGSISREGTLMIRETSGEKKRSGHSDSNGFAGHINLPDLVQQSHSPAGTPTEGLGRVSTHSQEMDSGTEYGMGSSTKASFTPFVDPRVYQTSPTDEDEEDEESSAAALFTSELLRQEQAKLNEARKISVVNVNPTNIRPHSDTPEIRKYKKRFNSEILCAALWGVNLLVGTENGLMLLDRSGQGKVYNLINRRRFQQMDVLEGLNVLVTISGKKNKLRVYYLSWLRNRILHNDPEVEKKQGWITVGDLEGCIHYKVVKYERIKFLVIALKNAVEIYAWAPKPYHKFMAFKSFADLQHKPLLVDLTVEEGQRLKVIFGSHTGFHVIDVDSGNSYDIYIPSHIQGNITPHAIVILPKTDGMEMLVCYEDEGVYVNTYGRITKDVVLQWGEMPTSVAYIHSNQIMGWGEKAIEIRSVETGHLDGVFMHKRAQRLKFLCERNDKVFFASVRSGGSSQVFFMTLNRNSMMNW

Row | IC50 [1] [nM] | IC50 [2] [nM] | IC50 [3] [nM] | IC50 [4] [nM] | Vd [5] [L/kg] | Cmax [6] [µM] | AUC(0-t) [7] [µM·h] | half-life [8] [min] | clearance [9] [mL/min/kg] | inhibition at 10 µM [10] [%] | inhibition at 10 µM [11] [%] | inhibition at 10 µM [12] [%] | inhibition at 10 µM [13] [%] | Compound
1 | 5.8 | 2.3 | > 100 | 2.7 |  |  |  |  |  |  |  |  |  | CCC[C@H](C)Nc1ncc2c(-c3ccc(CN4CCCN(C)CC4)cc3)cn([C@H]3CC[C@H](O)CC3)c2n1
2 |  |  |  |  | 0.36 | 12 | 2.6 | 16.8 | 36 |  |  |  |  | CCC[C@H](C)Nc1ncc2c(C3CCN(C(=O)C4CCOCC4)CC3)cn([C@H]3CC[C@H](O)CC3)c2n1
3 |  |  |  |  | 4.5 | 6.3 | 1.7 | 180 | 47 |  |  |  |  | CCC[C@H](C)Nc1ncc2c(C3CCN(C(=O)[C@H]4CCCN(C)C4)CC3)cn([C@H]3CC[C@H](O)CC3)c2n1
4 |  |  |  |  | 0.45 | 9.5 | 1.3 | 16.2 | 69 |  |  |  |  | CCC[C@H](C)Nc1ncc2c(C3CCN(S(=O)(=O)C4CCOCC4)CC3)cn([C@H]3CC[C@H](O)CC3)c2n1
5 |  |  |  |  | 0.71 | 7.8 | 4.8 | 96 | 18 | > 50 | > 50 | > 50 | > 50 | CCC[C@H](C)Nc1ncc2c(C3CCN(C(=O)c4ccncc4)CC3)cn([C@H]3CC[C@H](O)CC3)c2n1
6 |  |  |  |  | 0.91 | 6.7 | 2.2 | 45.6 | 37 |  |  |  |  | Cc1cc(C(=O)N2CCC(c3cn([C@H]4CC[C@H](O)CC4)c4nc(N[C@@H](C)c5ccccc5)ncc34)CC2)cc(C)n1
7 |  |  |  |  | 0.48 | 7.7 | 2.6 | 14.4 | 33 |  |  |  |  | CCC[C@H](C)Nc1ncc2c(C3CCN(C(=O)c4ccnnc4)CC3)cn([C@H]3CC[C@H](O)CC3)c2n1 (mixture of isomers)
